Results taken from US10098346B2, “Diphenyliodonium salts as sulfidogenesis inhibitors and antimicrobials” (Ecolab USA Inc., priority 2015, dated 2018).

Tests used:
Type in all cases: cell-based
[1] = system: hydrogen sulfide production by sulfur utilizing prokaryote; test: Hydrogen sulfide test kit (HACH, Model HS-C) in injection water aliquots; settings: injection water (synthetic seawater, produced water, lactate, thiosulfate); 0.1-100 ppm; up to 305 days
Method: (§1) A hydrogen sulfide test kit (HACH, Model HS-C) and an AccuCount test kit (available from Nalco Champion) were used to test the efficacy of diphenyliodonium chloride (DPIC) and diphenyliodonium nitrate (DPIN) in 100 mL aliquots of injection water collected by mixing synthetic seawater, produced water from an oil and gas production facility off-shore California, USA, lactate, and thiosulfate. The results of the testing of DPIC at 11 days, 84 days, and 305 days at concentrations of 0.1 ppm, 1 ppm, 10 ppm, and 100 ppm are shown in FIG. 2. The results of the testing of DPIC at 84 days and 305 days at concentrations of 0.1 ppm, 1 ppm, and 10 ppm are shown in FIG. 3. The results of the testing of DPIC and DPIN at 1 day, 7 days, and 14 days at concentrations of 0.1 ppm, 1 ppm, and 10 ppm in synthetic seawater are shown in the FIG. 4. The results of testing of DPIC and DPIN at 4 hours, 1 day, and 30 days at concentrations of 10 ppm and 100 ppm in 80% produced water, 50% produced water, and 20% produced water are shown in FIG. 5.

active microbes = test: AccuCount test kit, level of active microbes in injection water aliquots; settings: injection water (synthetic seawater, produced water, lactate, thiosulfate); 0.1-100 ppm; up to 305 days
Method: as §1

[2] = Next-generation DNA sequencing, relative abundance of each genus in treated samples; settings: DPIC 1 ppm - 305 Days
[3] = system: sulfur reducing prokaryotes; test: as above; settings: 1 ppm, 305 days

[Cl-].c1ccc([I+]c2ccccc2)cc1 [DPIC, diphenyliodonium chloride]
reducing the concentration hydrogen sulfide [1]: effective | reducing the level of active microbes (active microbes): effective | Relative Abundance, Acholeplasma sp. (APB) [2]: 0.2% | Relative Abundance, Citrobacter sp. (APB) [2]: 0.3% | Relative Abundance, Cryptanaerobacter sp. (APB) [2]: 0.1% | Relative Abundance, Kluyvera sp. (APB/GHB/NRB) [2]: 3.5% | Relative Abundance, Mangrovibacter sp. (NRB) [2]: 0.2% | Relative Abundance, Proteiniphilum sp. (APB) [2]: 0.3% | Relative Abundance, Pseudomonas sp. (NRB/GHB) [2]: 0.5% | Relative Abundance, Raoultella sp. (APB) [2]: 28.8% | Relative Abundance, Serratia sp. (NRB/GHB) [2]: 59.3% | Relative Abundance, Shimwellia sp. (APB) [2]: 6.7% | Relative Abundance, Sphaerochaeta sp. (APB) [2]: 0.2% | Relative Abundance, Thermovirga sp. (SRB) [2]: 0.1% | sulfur reducing prokaryotes by DNA sequencing [3]: no detectable

O=[N+]([O-])[O-].c1ccc([I+]c2ccccc2)cc1 [DPIN, diphenyliodonium nitrate]
reducing the concentration hydrogen sulfide [1]: effective | reducing the level of active microbes (active microbes): effective
